Experimental findings from US7906655B2, “Hepatitis C virus inhibitors” (Bristol-Myers Squibb Company, priority 2008, dated 2011) are described below.

A value given as a limit tells only on which side of the number the result lay.

One assay concerns HCV 1b genotype. Description: HCV Replicon assay (HCV-neo replicon cells, wild-type). It counts as cell-based. As to conditions: HCV 1b genotype replicon; class symbols. The method, then:
An HCV Replicon assay was utilized in the present disclosure, and was prepared, conducted and validated as described in commonly owned PCT/US2006/022197 and in O'Boyle et. al. Antimicrob Agents Chemother. 2005 April; 49 (4):1346-53. Assay methods incorporating luciferase reporters have also been used as described (Apath.com).
HCV-neo replicon cells and replicon cells containing mutations in the NS5A region were used to test the currently described family of compounds. The compounds were determined to have more than 10-fold less inhibitory activity on cells containing mutations than wild-type cells. Thus, the compounds of the present disclosure can be effective in inhibiting the function of the HCV NS5A protein and are understood to be as effective in combinations as previously described in application PCT/US2006/022197 and commonly owned WO/O4014852. Further, the compounds of the present disclosure can be effective against the HCV 1b genotype. It should also be understood that the compounds of the present disclosure can inhibit multiple genotypes of HCV. […] In one embodiment, compounds of the present disclosure are inhibitory versus 1a, 1b, 2a, 2b, 3a, 4a, and 5a genotypes.
(Replicon systems follow genome replication, usually without infectious particles.)
The EC50 is the concentration at which the effect is half-maximal. With `O=C([C@@H]1CCCO1)N1CCC[C@H]1c1nc2cc(C#Cc3ccc4[nH]c([C@@H]5CCCN5C(=O)[C@@H]5CCCO5)nc4c3)ccc2[nH]1` [Example M26.5], the EC50 lay within 0.1 to 0.999 µM.

The same assay, now with this note: Hepatitis C virus, HCV 1b genotype replicon; class symbols.
Consider `COC(=O)N[C@H](C(=O)N1[C@@H]2C[C@@H]2C[C@H]1c1nc2cc(-c3ccc(Oc4cccc5[nH]c([C@@H]6C[C@H]7C[C@H]7N6C(=O)[C@@H](NC(=O)OC)C(C)C)nc45)cc3)ccc2[nH]1)C(C)C` [Example V6, Methyl((1S)-1-(((1R,3S,5R)-3-(4-(4-(2-((1R,3S,5R)-2-((2S)-2-((methoxycarbonyl)amino)-3-methylbutanoyl)-2-azabicyclo[3.1.0]hex-3-yl)-1H-benzimidazol-5-yl)phenoxy)-1H-benzimidazol-2-yl)-2-azabicyclo[3.1.0]hex-2-yl)carbonyl)-2-methylpropyl)carbamate], for which the EC50 is below 0.00457 µM. Same read-out and setting: the figure for `CO[C@@H]1C[C@@H](c2nc3cc(C#Cc4ccc5nc([C@@H]6C[C@@H](OC)CN6C(=O)OCc6ccccc6)[nH]c5c4)ccc3[nH]2)N(C(=O)OCc2ccccc2)C1` [Example F8, benzyl (2S,4R)-2-(5-((2-((2S,4R)-1-((benzyloxy)carbonyl)-4-methoxy-2-pyrrolidinyl)-1H-benzimidazol-6-yl)ethynyl)-1H-benzimidazol-2-yl)-4-methoxy-1-pyrrolidinecarboxylate] is below 0.00457 µM. With `CN(C)[C@@H](C(=O)N1CCC[C@H]1c1nc2cc(C#Cc3ccc4[nH]c([C@@H]5CCCN5C(=O)[C@H]5CCCO5)nc4c3)ccc2[nH]1)c1ccccc1` [Example M53, (1R)-N,N-dimethyl-2-oxo-1-phenyl-2-((2S)-2-(5-((2-((2S)-1-((2R)-tetrahydro-2-furanylcarbonyl)-2-pyrrolidinyl)-1H-benzimidazol-5-yl)ethynyl)-1H-benzimidazol-2-yl)-1-pyrrolidinyl) ethanamine], the EC50 is below 0.00457 µM.

For the compound `CC(=O)N1CCC[C@H]1c1nc2ccc(C#Cc3ccc4[nH]c([C@@H]5CCCN5C(=O)Cc5cccs5)nc4c3)cc2[nH]1` [Example M54.23, 5-((2-((2S)-1-acetyl-2-pyrrolidinyl)-1H-benzimidazol-6-yl)ethynyl)-2-((2S)-1-(2-thienylacetyl)-2-pyrrolidinyl)-1H-benzimidazole], the EC50 lay within 0.00457 to 0.099 µM. The same measure, in the same setting: with `O=C(C1CC1)N1CCC[C@H]1c1nc2ccc(C#Cc3ccc4[nH]c([C@@H]5CCCN5C(=O)[C@H]5CCCO5)nc4c3)cc2[nH]1` [Example M54.9, 5-((2-((2S)-1-(cyclopropyl-carbonyl)-2-pyrrolidinyl)-1H-benzimidazol-6-yl)ethynyl)-2-((2S)-1-((2R)-tetrahydro-2-furanylcarbonyl)-2-pyrrolidinyl)-1H-benzimidazole] the figure was 0.00457 to 0.099 µM; with `C[C@H](NC(=O)[C@H]1CCCO1)c1nc2cc(CCc3ccc4[nH]c([C@H](C)NC(=O)[C@H]5CCCO5)nc4c3)ccc2[nH]1` [OL15, (2R,2′R)—N,N′-(1,2-ethanediylbis(1H-benzimidazole-5,2-diyl(1S)-1,1-ethanediyl))ditetrahydro-2-furancarboxamide], 0.1 to 0.999 µM.

Regarding `O=C([C@H](O)c1ccccc1)N1CCC[C@H]1c1nc2cc(-c3ccc(-c4ccc5[nH]c([C@@H]6CCCN6C(=O)[C@H](O)c6ccccc6)nc5c4)o3)ccc2[nH]1` [JG2, (1R,1′R)-2,2′-(2,5-furandiylbis(1H-benzimidazole-5,2-diyl(2S)-2,1-pyrrolidinediyl))bis(2-oxo-1-phenylethanol)], the EC50 was below 0.00457 µM. Same read-out and setting: with `O=C(Cc1ccccc1)N1C[C@H](O)C[C@H]1c1nc2cc(C#Cc3ccc4[nH]c([C@@H]5C[C@@H](O)CN5C(=O)Cc5ccccc5)nc4c3)ccc2[nH]1` [Example M37.1, (3R,5S,3′R,5′S)-5,5′-(1,2-ethynediylbis(1H-benzimidazole-5,2-diyl))bis(1-(phenylacetyl)-3-pyrrolidinol)] the figure was below 0.00457 µM; with `CC(=O)N1CCC[C@H]1c1nc2cc(C#Cc3ccc4[nH]c([C@@H]5CCCN5C(=O)OCc5ccccc5)nc4c3)ccc2[nH]1` [Example M54.26, benzyl (2S)-2-(5-((2-((2S)-1-acetyl-2-pyrrolidinyl)-1H-benzimidazol-5-yl)ethynyl)-1H-benzimidazol-2-yl)-1-pyrrolidine-carboxylate], 0.00457 to 0.099 µM; with `CN(C)[C@@H](C(=O)N1CCC[C@H]1c1nc2cc(-c3cnc(-c4ccc5nc([C@@H]6CCCN6C(=O)[C@@H](c6ccccc6)N(C)C)[nH]c5c4)o3)ccc2[nH]1)c1ccccc1` [Example J20, (1R)-2-((2S)-2-(5-(2-(2-((2S)-1-((2R)-2-(dimethyl-amino)-2-phenylacetyl)-2-pyrrolidinyl)-1H-benzimidazol-6-yl)-1,3-oxazol-5-yl)-1H-benzimidazol-2-yl)-1-pyrrolidinyl)-N,N-dimethyl-2-oxo-1-phenyl-ethanamine], below 0.00457 µM. `CCC(=O)N1CCC[C@H]1c1nc2cc(C#Cc3ccc4nc([C@@H]5CCCN5C(C)=O)[nH]c4c3)ccc2[nH]1` [Example M54.29, 5-((2-((2S)-1-acetyl-2-pyrrolidinyl)-1H-benzimidazol-6-yl)ethynyl)-2-((2S)-1-propionyl-2-pyrrolidinyl)-1H-benzimidazole]: the EC50 fell in the range of 0.1 to 0.999 µM. On the same count and under the same terms, the figure for `O=C(c1cccnc1)N1CCC[C@H]1c1nc2ccc(C#Cc3ccc4[nH]c([C@@H]5CCCN5C(=O)[C@H]5CCCO5)nc4c3)cc2[nH]1` [Example M54.3, 5-((2-((2S)-1-(3-pyridinylcarbonyl)-2-pyrrolidinyl)-1H-benzimidazol-6-yl)ethynyl)-2-((2S)-1-((2R)-tetrahydro-2-furanylcarbonyl)-2-pyrrolidinyl)-1H-benzimidazole] is 0.00457 to 0.099 µM. Still for that read-out and setting: with `O=C(c1ccccc1)N1CCC[C@H]1c1nc2ccc(C#Cc3ccc4[nH]c([C@@H]5CCCN5C(=O)[C@H]5CCCO5)nc4c3)cc2[nH]1` [Example M54.1, 5-((2-((2S)-1-benzoyl-2-pyrrolidinyl)-1H-benzimidazol-6-yl)ethynyl)-2-((2S)-1-((2R)-tetrahydro-2-furanylcarbonyl)-2-pyrrolidinyl)-1H-benzimidazole] the figure was 0.00457 to 0.099 µM. Same read-out and setting: with `O=C(C1CCC1)N1CCC[C@H]1c1nc2ccc(C#Cc3ccc4[nH]c([C@@H]5CCCN5C(=O)[C@H]5CCCO5)nc4c3)cc2[nH]1` [Example M54.10, 5-((2-((2S)-1-(cyclobutyl-carbonyl)-2-pyrrolidinyl)-1H-benzimidazol-6-yl)ethynyl)-2-((2S)-1-((2R)-tetrahydro-2-furanylcarbonyl)-2-pyrrolidinyl)-1H-benzimidazole] the figure was 0.00457 to 0.099 µM; with `CC(=O)N1CCC[C@H]1c1nc2ccc(C#Cc3ccc4[nH]c([C@@H]5CCCN5C(=O)C5CCC5)nc4c3)cc2[nH]1` [Example M54.31, 5-((2-((2S)-1-acetyl-2-pyrrolidinyl)-1H-benzimidazol-6-yl)ethynyl)-2-((2S)-1-(cyclobutyl-carbonyl)-2-pyrrolidinyl)-1H-benzimidazole], 0.00457 to 0.099 µM.

The assay is the same for the next values; noted with them: Hepatitis C virus, HCV 1b genotype replicon; numeric values.
For the compound `COc1cccc2c(C(=O)N3CCC[C@H]3c3nc4cc(-c5cnc(-c6cccc7[nH]c([C@@H]8CCCN8C(=O)c8nc(Cl)cc9c(OC)cccc89)nc67)o5)ccc4[nH]3)nc(Cl)cc12` [Example J15, 3-chloro-1-(((2S)-2-(4-(5-(2-((2S)-1-((3-chloro-5-methoxy-1-isoquinolinyl)carbonyl)-2-pyrrolidinyl)-1H-benzimidazol-5-yl)-1,3-oxazol-2-yl)-1H-benzimidazol-2-yl)-1-pyrrolidinyl)carbonyl)-5-methoxy-isoquinoline], the EC50 was above 10 µM.
